Legend:
[1] = system: c Fos expression in arcuate nucleus of hypothalamus; test: c Fos expression in arcuate nucleus after NMA (inhibition of synaptic plasticity in vivo); set-up: species or system Sprague Dawley female adult rats; conditions: 75% Xe + NMA 100 mg/kg s.c.
Description: With exposure to NMA neuronal activation is enhanced (E vs A) which is indicative of synaptic plasticity. In the presence of both Xenon (D) and MK 801 (B), synaptic plasticity induced by NMA is inhibited. […] This is sometimes referred to as long term potentiation, an example of synaptic plasticity. […] The attenuation of c Fos expression is a reflection of the inhibition of synaptic plasticity.

rhesus monkeys [2] = conditions: cited from earlier work
[3] = system: co-culture injured by oxygen/glucose or oxygen deprivation; test: Oxygen/glucose or oxygen deprivation injury in co-culture (LDH release); type: cell-based, mouse; conditions: 75 min replacement of O2 with N2; xenon replacing N2
Procedure: Anoxia was performed on a co-culture by a 75 min replacement of O2 with N2. The xenon and N2 concentrations were changed reciprocally such that their aggregate was 95% of one atmosphere (5% CO2 in either group). After 24 h the culture medium was harvested and assayed for LDH. Data are expressed as the % mean±SD (n=3) of LDH released into the medium over the 24 h period normalised to LDH release when N2 alone is present.
Dissociated murine cortical cell cultures were prepared using whole cerebral neocortices from fetal mice (14-17 days of gestation). Cortical glial cell cultures were prepared from early postnatal mice. After halting non-neuronal cell division with cytosine arabinoside the surviving cortical neuronal cells were plated onto the glial cell background and co-cultured.

rhesus monkeys [4] = test: MAC in rhesus monkeys; type: in vivo; conditions: 37° C.
Procedure: (§1) The gaseous concentration of xenon which prevents a response to a painful stimulus (i.e. MAC) appears to vary among species, being 71% atm in humans (Cullen SC et al, Anesthesiology 1969, 31:305-309), 98% atm in rhesus monkeys (Whitehurst S L et al, J. Neurosurg. Anesthesiol. 1994, 6:275-279) and 161% atm in rats (Koblin D D et al, Anesth. Analg. 1998, 87:419-424). When these values are converted to free aqueous concentrations at 37° C. (Franks N P et al, Br. J. Anaesth. 1993, 71:65-76; Franks N P et al, Anesthesiology, 1996, 84:716-720) using an Ostwald water/gas partition coefficient of 0.0887 (Weathersby P K et al, Undersea Biomed. Res. 1980, 7:277-296), the values obtained are 2.5 mM, 3.4 mM and 5.6 mM for humans, monkeys and rats respectively, with the average value being 3.8 mM. For the experiments described herein, performed at room temperature, the concentration of xenon present in the standard test solution was 3.4 mM. […] This is illustrated with representative traces in FIG. 2.

humans = conditions: cited from earlier work
GABAA receptors [5] = target: T1, GABAA receptors (Bos taurus, UniProt P08219+P08220+P22300); test: Currents activated by GABA in voltage-clamped PA3 cells stably expressing defined GABA subunits; type: cell-based; conditions: 100% xenon
T1 construct: expressed in transfected cells
T1 sequence (P08219 28-456): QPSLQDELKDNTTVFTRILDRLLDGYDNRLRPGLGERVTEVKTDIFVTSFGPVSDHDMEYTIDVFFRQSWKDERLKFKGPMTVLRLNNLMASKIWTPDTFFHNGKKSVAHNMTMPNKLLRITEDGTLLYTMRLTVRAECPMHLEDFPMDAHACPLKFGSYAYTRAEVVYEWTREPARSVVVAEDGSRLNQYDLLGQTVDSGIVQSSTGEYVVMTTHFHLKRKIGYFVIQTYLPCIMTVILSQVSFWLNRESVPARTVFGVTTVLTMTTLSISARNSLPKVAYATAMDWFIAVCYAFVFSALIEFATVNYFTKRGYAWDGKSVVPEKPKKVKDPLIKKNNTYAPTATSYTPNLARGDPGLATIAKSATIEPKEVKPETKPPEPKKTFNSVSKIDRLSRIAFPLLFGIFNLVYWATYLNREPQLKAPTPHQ
T1 sequence (P08220 26-474): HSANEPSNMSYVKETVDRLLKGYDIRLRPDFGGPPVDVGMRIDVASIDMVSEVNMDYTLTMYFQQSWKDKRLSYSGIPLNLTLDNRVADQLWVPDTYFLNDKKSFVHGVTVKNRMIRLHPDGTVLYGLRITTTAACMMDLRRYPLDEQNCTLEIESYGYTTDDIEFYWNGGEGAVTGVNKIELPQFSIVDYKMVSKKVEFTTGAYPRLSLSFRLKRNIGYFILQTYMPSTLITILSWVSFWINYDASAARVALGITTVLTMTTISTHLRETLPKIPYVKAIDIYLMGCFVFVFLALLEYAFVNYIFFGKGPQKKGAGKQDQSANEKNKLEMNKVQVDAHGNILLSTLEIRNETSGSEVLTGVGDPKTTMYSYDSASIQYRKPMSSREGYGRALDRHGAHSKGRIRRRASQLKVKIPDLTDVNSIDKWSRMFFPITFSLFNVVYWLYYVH
T1 sequence (P22300 40-475): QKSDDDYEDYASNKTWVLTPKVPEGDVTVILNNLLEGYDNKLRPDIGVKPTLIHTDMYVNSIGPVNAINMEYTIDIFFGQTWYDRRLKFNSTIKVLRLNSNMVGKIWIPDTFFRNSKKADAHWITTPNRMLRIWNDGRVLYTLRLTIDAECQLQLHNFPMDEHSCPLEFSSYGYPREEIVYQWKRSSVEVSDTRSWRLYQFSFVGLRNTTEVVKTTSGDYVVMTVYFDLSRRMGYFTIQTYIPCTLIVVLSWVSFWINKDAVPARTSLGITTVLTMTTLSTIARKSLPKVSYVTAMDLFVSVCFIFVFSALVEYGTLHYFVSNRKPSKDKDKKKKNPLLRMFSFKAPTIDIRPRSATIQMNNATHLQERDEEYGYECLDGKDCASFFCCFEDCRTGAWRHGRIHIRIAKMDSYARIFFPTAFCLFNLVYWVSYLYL
Description: Studies carried out by the applicant have shown that xenon has virtually no effect on GABAA receptors.

rats = conditions: cited from earlier work
GABAA receptors [6] = test: Currents evoked by exogenously applied GABA in voltage-clamped cultured hippocampal neurons; type: cell-based; conditions: 100% xenon; cultured rat hippocampal neurons
humans, monkeys and rats = test: MAC as free aqueous concentration, average of humans, monkeys and rats; type: in vivo; conditions: 37° C.
Procedure: as §1

Structure (SMILES): [Xe] [xenon]
- synaptic plasticity induced by NMA (c Fos expression) [1]: is inhibited
- gaseous concentration which prevents a response to a painful stimulus (MAC) (rhesus monkeys [2]): 98 % atm
- protection against injury induced by oxygen/glucose or oxygen alone deprivation (LDH release over 24 h) [3]: dose-dependent protective effect
- MAC converted to free aqueous concentration (rhesus monkeys [4]): 3.4 mM
- half maximal effective concentration EC50 as a human anaesthetic (humans; human): 71 % v/v
- gaseous concentration which prevents a response to a painful stimulus (MAC) (humans; humans): 71 % atm
- effect on currents activated by 3 μM GABA (GABAA receptors [5]): not significantly affected
- gaseous concentration which prevents a response to a painful stimulus (MAC) (rats): 161 % atm
- effect on currents activated by 3 μM GABA (GABAA receptors [6]): not significantly affected
- MAC as free aqueous concentration, average value (humans, monkeys and rats): 3.8 mM
